# Laboratory results: patent publication US20250320184A1 (SIRONAX LTD., priority 2022, published 2025)
# Target: T1, SARM1 (50-724) (Homo sapiens, UniProt Q6SZW1)
# T1 sequence (Q6SZW1 50-724): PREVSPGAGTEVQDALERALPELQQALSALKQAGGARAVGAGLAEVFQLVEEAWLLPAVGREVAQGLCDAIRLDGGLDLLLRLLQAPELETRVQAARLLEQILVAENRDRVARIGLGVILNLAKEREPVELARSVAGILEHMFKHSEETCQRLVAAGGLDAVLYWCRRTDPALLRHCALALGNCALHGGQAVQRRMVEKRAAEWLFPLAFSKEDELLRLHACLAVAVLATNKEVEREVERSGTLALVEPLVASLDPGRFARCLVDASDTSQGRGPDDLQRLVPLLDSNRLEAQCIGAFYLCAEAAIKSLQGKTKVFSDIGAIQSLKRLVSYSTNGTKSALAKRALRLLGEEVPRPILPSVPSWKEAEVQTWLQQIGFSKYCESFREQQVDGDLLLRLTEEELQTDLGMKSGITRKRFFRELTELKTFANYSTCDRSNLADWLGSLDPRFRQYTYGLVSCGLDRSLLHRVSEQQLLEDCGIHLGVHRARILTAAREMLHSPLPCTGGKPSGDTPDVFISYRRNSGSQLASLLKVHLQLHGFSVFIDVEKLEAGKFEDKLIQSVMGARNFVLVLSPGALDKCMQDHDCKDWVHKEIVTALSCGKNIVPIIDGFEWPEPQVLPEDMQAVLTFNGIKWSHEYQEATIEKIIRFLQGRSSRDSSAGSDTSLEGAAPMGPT
# Test: biochemical
# Procedure: An enzymatic assay was performed in a 384-well plate using Dulbecco's phosphate-buffered saline (PBS) as the reaction buffer. […] The reaction was initiated by adding a mixture of 200 μM nicotinamide mononucleotide (NMN) as activator and 100 μM NAD^+ as substrate. After 1 h of incubation at room temperature, the reaction was terminated with 10 times volume of 70% acetonitrile, then centrifuged at 3800 rpm for 10 min.
row,IC50,Structure (SMILES)
1,> 1 µM,"CC(Nc1ccc2c(cnn2C)c1)c1cccc(Cl)c1Cl (racemic) [Example 141, N-(1-(2,3-dichlorophenyl)ethyl)-1-methyl-1H-indazol-5-amine]"
2,> 1 µM,"CC[C@H](C(N)=O)c1ccc(N[C@H](C)c2nc(Cl)c(Cl)s2)cc1 (single isomer, unassigned) [Compound 302A]"
3,< 0.1 µM,"CC[C@H](C(N)=O)c1ccc(N[C@@H](C)c2nc(Cl)c(Cl)s2)cc1 (single isomer, unassigned) [Compound 302]"
4,< 0.1 µM,"Cc1c2ccc(NC(C)(C)c3nc(Cl)c(Cl)s3)cc2nn1CC(N)=O [Example 360, 2-(6-((2-(4,5-dichlorothiazol-2-yl)propan-2-yl)amino)-3-methyl-2H-indazol-2-yl)acetamide]"
5,< 0.1 µM,"CC(C(N)=O)c1ccc(NS(=O)(=O)c2cccc(Cl)c2Cl)cc1 (racemic) [Compound 196, 2-(4-((2,3-dichlorophenyl)sulfonamido)phenyl)propanamide]"
6,< 0.1 µM,"Cc1c2ccc(NC(C)c3nc(Cl)c(Cl)s3)cc2nn1CC(N)=O (single isomer, unassigned) [Compound 312]"
7,0.1 to 0.5 µM,"CC(Nc1ccc2ccn(C)c(=O)c2c1)c1c(Cl)cccc1Cl (racemic) [Example 151, 7-((1-(2,6-dichlorophenyl)ethyl)amino)-2-methylisoquinolin-1(2H)-one]"
8,< 0.1 µM,"CC(Nc1ccc2cc[nH]c(=O)c2c1)c1nn(C)c(C(F)F)c1Cl (racemic) [Compound 325, 7-((1-(4-chloro-5-(difluoromethyl)-1-methyl-1H-pyazol-3-yl)ethyl)amino)isoquinolin-1(2H)-one]"
9,< 0.1 µM,"CC(Nc1ccc2nc[nH]c(=O)c2c1)c1c(Cl)ccc(F)c1Cl (single isomer, unassigned) [Example 201]"
10,0.1 to 0.5 µM,"Cc1c(F)cccc1S(=O)(=O)Nc1ccc2scnc2c1 [Compound 32, N-(benzo[d]thiazol-5-yl)-3-fluoro-2-methylbenzenesulfonamide]"
11,0.1 to 0.5 µM,"N#Cc1cccc2ccc(NS(=O)(=O)c3cccc(Cl)c3Cl)cc12 [Compound 85, 2,3-dichloro-N-(8-cyanonaphthalen-2-yl)benzenesulfonamide]"
12,< 0.1 µM,"CC(Nc1cc(F)c2ncn(-c3ccn[nH]3)c(=O)c2c1)c1nc(Cl)c(Cl)s1 (single isomer, unassigned) [Example 356]"
13,< 0.1 µM,"CC(Nc1cc(F)c2ncn(CC(N)=O)c(=O)c2c1)c1nc(Cl)c(Cl)s1 (single isomer, unassigned) [Compound 323]"
14,< 0.1 µM,"CC(Nc1ccc2cc[nH]c(=O)c2c1)c1cc(F)cc(Cl)c1Cl (racemic) [Example 136, 7-((1-(2,3-dichloro-5-fluorophenyl)ethyl)amino)isoquinolin-1(2H)-one]"
15,< 0.1 µM,"CC(Nc1ccc2cc[nH]c(=O)c2c1)c1nn(C2CCC2)c(Cl)c1Cl (stereo not drawn) [Compound 322, 7-((1-(4,5-dichloro-1-cyclobutyl-1H-pyrazol-3-yl)ethyl)amino)isoquinolin-1(2H)-one]"
16,0.5 to 1 µM,"CC(Nc1ccc2cn[nH]c2c1)c1cccc(Cl)c1Cl (stereo not drawn) [Example 12A, N-(1-(2,3-dichlorophenyl)ethyl)-1H-indazol-6-amine]"
17,< 0.1 µM,"CC(Nc1ccc2c(c1)NC(=O)C2(C)C)c1cncc(Cl)c1Cl (racemic) [Compound 267, 6-((1-(4,5-dichloropyridin-3-yl)ethyl)amino)-3,3-dimethylindolin-2-one]"
18,< 0.1 µM,"Cc1n[nH]c(=O)c2cc(NC(C)c3nccc(Cl)c3Cl)ccc12 (racemic) [Compound 266, 7-((1-(3,4-dichloropyridin-2-yl)ethyl)amino)-4-methylphthalazin-1(2H)-one]"
19,< 0.1 µM,"NC(=O)Cn1ccc2ccc(NS(=O)(=O)c3cccc(Cl)c3Cl)cc2c1=O [Compound 306, 2-(7-((2,3-dichlorophenyl)sulfonamido)-1-oxoisoquinolin-2(1H)-yl)acetamide]"
20,< 0.1 µM,"Cc1c(Br)cccc1S(=O)(=O)Nc1ccc2cc[nH]c(=O)c2c1 [Compound 191, 3-bromo-2-methyl-N-(1-oxo-1,2-dihydroisoquinolin-7-yl)benzenesulfonamide]"
21,< 0.1 µM,"C[C@@H](Nc1ccc2cc[nH]c(=O)c2c1)c1nccc(Cl)c1Cl (single isomer, unassigned) [Example 194A, (S or R)-7-((1-(3,4-dichloropyridin-2-yl)ethyl)amino)isoquinolin-1(2H)-one]"

row,IC50,Structure (SMILES)
1,< 0.1 µM,"Cc1sc(C(C)Nc2ccc3c(C)n(CC(N)=O)nc3c2)nc1Cl (racemic) [Compound 379, 2-(6-((1-(4-chloro-5-methylthiazol-2-yl)ethyl)amino)-3-methyl-2H-indazol-2-yl)acetamide]"
2,< 0.1 µM,"CC1(C)C(=O)N(CC2CNC(=O)CO2)c2cc(NS(=O)(=O)c3cccc(Cl)c3Cl)ccc21 (stereo not drawn) [Compound 333, 2,3-dichloro-N-(3,3-dimethyl-2-oxo-1-((5-oxomorpholin-2-yl)methyl)indolin-6-yl)benzenesulfonamide]"
3,> 1 µM,Cc1c(F)cccc1S(=O)(=O)Nc1ccc2c(c1)CN(C(=O)OC(C)(C)C)CC2 [Compound 4]
4,> 1 µM,"Cc1cc(F)cc(C(Cc2ccccc2)Nc2ccc3c(c2)C(=O)NCC3)c1 (racemic) [Example 127, 7-((1-(3-fluoro-5-methylphenyl)-2-phenylethyl)amino)-3,4-dihydroisoquinolin-1(2H)-one]"
5,< 0.1 µM,"O=C1CCCc2ccc(NS(=O)(=O)c3cccc(Cl)c3Cl)cc21 [Compound 55, 2,3-dichloro-N-(8-oxo-5,6,7,8-tetrahydronaphthalen-2-yl)benzenesulfonamide]"
6,0.1 to 0.5 µM,"O=S(=O)(Nc1ccc2ccccc2c1)c1cccc(Cl)c1Cl [Compound 44, 2,3-dichloro-N-(naphthalen-2-yl)benzenesulfonamide]"
7,0.1 to 0.5 µM,"O=C1NCCc2ccc(NS(=O)(=O)c3cccc(F)c3Cl)cc21 [Compound 53, 2-chloro-3-fluoro-N-(1-oxo-1,2,3,4-tetrahydroisoquinolin-7-yl)benzenesulfonamide]"
8,> 1 µM,"CC(Nc1cccc(-c2cccnn2)c1)c1cccc(Cl)c1Cl (racemic) [Example 150, N-(1-(2,3-dichlorophenyl)ethyl)-3-(pyridazin-3-yl)aniline]"
9,< 0.1 µM,"CC(Nc1cc(F)c2ncn(-c3n[nH]cc3Cl)c(=O)c2c1)c1nc(Cl)c(Cl)s1 (racemic) [Example 370, 3-(4-chloro-1H-pyrazol-3-yl)-6-((1-(4,5-dichlorothiazol-2-yl)ethyl)amino)-8-fluoroquinazolin-4(3H)-one]"
10,< 0.1 µM,"CC1(C)CN(C(=O)C2(C(N)=O)CC2)c2cc(NS(=O)(=O)c3cccc(Cl)c3Cl)ccc21 [Compound 313, 1-(6-((2,3-dichlorophenyl)sulfonamido)-3,3-dimethylindoline-1-carbonyl)cyclopropane-1-carboxamide]"
11,< 0.1 µM,"CCC(Nc1ccc2cc[nH]c(=O)c2c1)c1nccc(Cl)c1Cl (racemic) [Example 153, 7-((1-(3,4-dichloropyridin-2-yl)propyl)amino)isoquinolin-1(2H)-one]"
12,> 1 µM,"Cc1c(F)cccc1S(=O)(=O)Nc1cccc(N2CCNC2=O)c1 [Compound 46, 3-fluoro-2-methyl-N-(3-(2-oxoimidazolidin-1-yl)phenyl)benzenesulfonamide]"
13,< 0.1 µM,"CC(Nc1cc(F)c2ncn(-c3ncc[nH]3)c(=O)c2c1)c1nc(Cl)c(Cl)s1 (racemic) [Example 375, 6-((1-(4,5-dichlorothiazol-2-yl)ethyl)amino)-8-fluoro-3-(1H-imidazol-2-yl)quinazolin-4(3H)-one]"
14,< 0.1 µM,"Cc1sc(C(C)Nc2ccc3c(C)n(CC(N)=O)nc3c2)nc1Cl (single isomer, unassigned) [Compound 380]"
15,> 1 µM,"Cc1ccccc1S(=O)(=O)Nc1ccc2c(c1)C(=O)NCC2 [Compound 9, 2-methyl-N-(1-oxo-1,2,3,4-tetrahydroisoquinolin-7-yl)benzenesulfonamide]"
16,< 0.1 µM,"CC1(C)C(=O)N(CC(=O)N2CCCCC2)c2cc(NS(=O)(=O)c3cccc(Cl)c3Cl)ccc21 [Example 286, 2,3-dichloro-N-(3,3-dimethyl-2-oxo-1-(2-oxo-2-(piperidin-1-yl)ethyl)indolin-6-yl)benzenesulfonamide]"
17,< 0.1 µM,"CC(Nc1ccc2cn[nH]c2c1)c1nc(Cl)c(Cl)s1 (racemic) [Compound 249, N-(1-(4,5-dichlorothiazol-2-yl)ethyl)-1H-indazol-6-amine]"
18,> 1 µM,"CC(Nc1ccc2c(c1)C(=O)NCC2)c1cc(Cl)nc(Cl)c1 (racemic) [Example 98, 7-((1-(2,6-dichloropyridin-4-yl)ethyl)amino)-3,4-dihydroisoquinolin-1(2H)-one]"
19,0.1 to 0.5 µM,"Cc1snc(C(C)Nc2ccc3nc[nH]c(=O)c3c2)c1Cl (racemic) [Compound 260, 6-((1-(4-chloro-5-methylisothiazol-3-yl)ethyl)amino)quinazolin-4(3H)-one]"
20,0.1 to 0.5 µM,"CCC(Nc1ccc2c(c1)C(=O)NCN2)c1cccc(Cl)c1Cl (racemic) [Example 147, 6-((1-(2,3-dichlorophenyl)propyl)amino)-2,3-dihydroquinazolin-4(1H)-one]"
21,< 0.1 µM,"Cc1n[nH]c(=O)c2cc(NC(C)c3nc(Cl)c(Cl)s3)ccc12 (racemic) [Example 223, 7-((1-(4,5-dichlorothiazol-2-yl)ethyl)amino)-4-methylphthalazin-1(2H)-one]"
